Reference: the supplement of paper PMC11451515

System: P12-Ichikawa
Assay: cell viability relative to DMSO control; higher = less cytotoxic
Details: 48 h
Outline: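 Viability is a per-plate percentage relative to DMSO wells, with cell-free wells as background. CellTiter-Glo One luminescence was read after 48 h at 37°C on 1536-well plates (5 μl) of NOMO1 or SEM (500 cells/well) or P12-Ichikawa (1000 cells/well) leukemia cells. The cells had been adapted for at least four passages in each medium and pin-dosed with library compounds in DMSO from 47 μM to 0.79 nM in 11 threefold steps.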

[1] = HPLM + 10% dialyzed FBS, 0.000781 µM
[2] = HPLM + 10% dialyzed FBS, 0.00234 µM
[3] = HPLM + 10% dialyzed FBS, 0.00702 µM
[4] = HPLM + 10% dialyzed FBS, 0.0211 µM
[5] = HPLM + 10% dialyzed FBS, 0.0632 µM
[6] = HPLM + 10% dialyzed FBS, 0.19 µM
[7] = HPLM + 10% dialyzed FBS, 0.569 µM
[8] = HPLM + 10% dialyzed FBS, 1.71 µM
[9] = HPLM + 10% dialyzed FBS, 5.12 µM
[10] = HPLM + 10% dialyzed FBS, 15.4 µM
[11] = HPLM + 10% dialyzed FBS, 46.1 µM
[12] = RPMI 5 mM glucose + 10% FBS, 0.000781 µM
[13] = RPMI 5 mM glucose + 10% FBS, 0.00234 µM
[14] = RPMI 5 mM glucose + 10% FBS, 0.00702 µM
[15] = RPMI 5 mM glucose + 10% FBS, 0.0211 µM
[16] = RPMI 5 mM glucose + 10% FBS, 0.0632 µM
[17] = RPMI 5 mM glucose + 10% FBS, 0.19 µM
[18] = RPMI 5 mM glucose + 10% FBS, 0.569 µM
[19] = RPMI 5 mM glucose + 10% FBS, 1.71 µM
[20] = RPMI 5 mM glucose + 10% FBS, 5.12 µM
[21] = RPMI 5 mM glucose + 10% FBS, 15.4 µM
[22] = RPMI 5 mM glucose + 10% FBS, 46.1 µM
[23] = RPMI 5 mM glucose + 10% dialyzed FBS, 0.000781 µM
[24] = RPMI 5 mM glucose + 10% dialyzed FBS, 0.00234 µM
[25] = RPMI 5 mM glucose + 10% dialyzed FBS, 0.00702 µM
[26] = RPMI 5 mM glucose + 10% dialyzed FBS, 0.0211 µM
[27] = RPMI 5 mM glucose + 10% dialyzed FBS, 0.0632 µM
[28] = RPMI 5 mM glucose + 10% dialyzed FBS, 0.19 µM
[29] = RPMI 5 mM glucose + 10% dialyzed FBS, 0.569 µM
[30] = RPMI 5 mM glucose + 10% dialyzed FBS, 1.71 µM
[31] = RPMI 5 mM glucose + 10% dialyzed FBS, 5.12 µM
[32] = RPMI 5 mM glucose + 10% dialyzed FBS, 15.4 µM
[33] = RPMI 5 mM glucose + 10% dialyzed FBS, 46.1 µM

| Compound | cell viability [1] [%] | cell viability [2] [%] | cell viability [3] [%] | cell viability [4] [%] | cell viability [5] [%] | cell viability [6] [%] | cell viability [7] [%] | cell viability [8] [%] | cell viability [9] [%] | cell viability [10] [%] | cell viability [11] [%] | cell viability [12] [%] | cell viability [13] [%] | cell viability [14] [%] | cell viability [15] [%] | cell viability [16] [%] | cell viability [17] [%] | cell viability [18] [%] | cell viability [19] [%] | cell viability [20] [%] | cell viability [21] [%] | cell viability [22] [%] | cell viability [23] [%] | cell viability [24] [%] | cell viability [25] [%] | cell viability [26] [%] | cell viability [27] [%] | cell viability [28] [%] | cell viability [29] [%] | cell viability [30] [%] | cell viability [31] [%] | cell viability [32] [%] | cell viability [33] [%] |
| --- | --- | --- | --- | --- | --- | --- | --- | --- | --- | --- | --- | --- | --- | --- | --- | --- | --- | --- | --- | --- | --- | --- | --- | --- | --- | --- | --- | --- | --- | --- | --- | --- | --- |
| CC1CCC(C(=O)N(c2cc(C#CC(C)(C)C)sc2C(=O)O)C2CCC(O)CC2)CC1 (stereo unspecified) | 102 | 91.2 | 98.4 | 95.9 | 95.1 | 95.7 | 93.1 | 88.2 | 83.2 | 59.5 | 49 | 91.2 | 96.3 | 92.4 | 92.5 | 95.6 | 87 | 96.7 | 75.9 | 71.9 | 49.2 | 45.5 | 85.8 | 92.4 | 77.3 | 95 | 86.3 | 83.8 | 88.5 | 77.4 | 69.2 | 54.3 | 38.4 |
| CCc1cncnc1N1CCN(Cc2nc3cc(C(F)(F)F)ccc3[nH]2)CC1 | 103 | 106 | 100 | 102 | 103 | 102 | 94.1 | 97.9 | 85.7 | 84 | 58 | 101 | 97.6 | 95.2 | 97.2 | 101 | 88.8 | 97.2 | 101 | 88.1 | 74.9 | 44.9 | 96.6 | 105 | 102 | 103 | 95.6 | 97.3 | 96.4 | 101 | 86.5 | 84.7 | 55.3 |
| Cn1c(=O)c2c(ncn2C)n(C)c1=O.O=C(O)CC(O)(CC(=O)O)C(=O)O | 108 | 106 | 112 | 111 | 111 | 113 | 105 | 105 | 96.8 | 101 | 93.1 | 116 | 119 | 126 | 126 | 121 | 117 | 115 | 116 | 120 | 110 | 107 | 106 | 114 | 110 | 111 | 110 | 109 | 105 | 114 | 113 | 106 | 96.3 |
| COc1cc2nc(N(C)CCCNC(=O)C3CCCO3)nc(N)c2cc1OC (stereo unspecified) | 78.4 | 88.7 | 80.9 | 92.3 | 88.8 | 87.6 | 86.2 | 82.3 | 88.3 | 92.6 | 94.1 | 82.3 | 87.4 | 89.9 | 91 | 92.6 | 91.3 | 84.6 | 87.8 | 91.6 | 93.9 | 101 | 70.4 | 81.7 | 76.8 | 78.9 | 82.9 | 83.4 | 79.5 | 82.7 | 76.6 | 87.8 | 80.7 |
| C/C=C1\NC(=O)[C@H]2CSSCC/C=C\[C@H](CC(=O)N[C@H](C(C)C)C(=O)N2)OC(=O)[C@H](C(C)C)NC1=O | 109 | 102 | 104 | 106 | 2.7 | 2.94 | 2.82 | 2.88 | 4.38 | 1.48 | 2.87 | 97.9 | 110 | 111 | 110 | 2.34 | 2.68 | 2.61 | 2.36 | 3.14 | 1.58 | 2.72 | 98.9 | 106 | 108 | 107 | 3.38 | 3.46 | 3.34 | 2.6 | 3.15 | 3.95 | 2.58 |
| OC(=O)C1=CC=C(NC2=NC3=C(C\N=C(/C4=CC(=CC=C34)Cl)C5=C(F)C=CC=C5F)C=N2)C=C1 | 93.9 | 101 | 97.8 | 105 | 104 | 89.4 | 77.6 | 48.5 | 27.1 | 18.6 | 18.3 | 95.8 | 99.1 | 106 | 107 | 110 | 93.9 | 74.4 | 48.9 | 27 | 24.7 | 25.1 | 98.1 | 95.1 | 96.2 | 91.4 | 101 | 95.4 | 75.7 | 52.3 | 36.6 | 32.6 | 30.7 |
| Cc1ccc(NC(=O)c2ccc(CN3CCN(C)CC3)cc2)cc1Nc1nc(-c2cccnc2)cs1 | 102 | 104 | 106 | 103 | 106 | 102 | 101 | 92.7 | 70.5 | 57 | 41.3 | 105 | 101 | 110 | 113 | 100 | 111 | 89.1 | 89.7 | 63 | 50.4 | 49.7 | 108 | 112 | 109 | 109 | 110 | 108 | 95.5 | 95.1 | 62.1 | 46.1 | 45.4 |
